# Source: publication PMC3885546, “Structural Determinants of the 5′-Methylthioinosine Specificity of Plasmodium Purine Nucleoside Phosphorylase” (PLoS ONE, 2014)
# Where a chain is given by its changes, count along the chain named. Like-named read-outs stand apart in the source and are kept apart here.
# Legend:
# [1] = molecular target: T1, PfPNP (wild type) (Plasmodium falciparum, UniProt Q8I3X4); assay: Substrate kinetics, xanthine oxidase coupled phosphorolysis assay; type: biochemical
# T1 construct: made in house; host or cells: Escherichia coli Top 10
# T1 sequence (Q8I3X4 1-245): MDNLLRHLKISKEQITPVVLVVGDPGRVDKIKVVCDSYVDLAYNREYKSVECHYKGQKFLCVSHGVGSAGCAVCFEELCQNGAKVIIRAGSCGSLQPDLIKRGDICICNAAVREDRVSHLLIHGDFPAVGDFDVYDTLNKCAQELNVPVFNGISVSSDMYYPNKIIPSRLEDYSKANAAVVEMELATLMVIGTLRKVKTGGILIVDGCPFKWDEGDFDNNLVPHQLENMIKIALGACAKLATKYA
# Experimental: (§1) Kinetic assays were completed in 50 mM KH2PO4 at pH 7.4 measuring phosphorylysis of inosine or MTI by PNP in a coupled reaction with 60 milliunits/ml xanthine oxidase to convert hypoxanthine to uric acid. Formation of uric acid was measured at 293 nm wavelength (E293 = 12.9 mM^−1 cm^−1), [20]. In cases where activity for MTI was low, increased protein concentration (10 µg/ml) was used to check enzyme function. Assays were performed with excess substrate in the presence of inhibitors. Inhibition studies measured both initial (Ki) and slow onset inhibition (Ki*) for inhibitors. The initial onset inhibition was analyzed by using the following equation: ν ο = (k cat×S)/(K m(1+I/Ki)+S), ν ο is the steady state rate, k cat catalytic rate, S is substrate concentration, Km is Michealis constant for inosine, I is inhibitor concentration, and Ki is the equilibrium dissociation constant.
# [2] = molecular target: T2, PfPNP Val66Phe (Plasmodium falciparum, UniProt Q8I3X4, V66F); assay: Substrate kinetics, coupled assay; type: biochemical; set-up: key to Km / kcat / kcat/Km: (-): Activity not detected under the experimental conditions; details: for Km / kcat / kcat/Km: substrate = label
# T2 construct: made in house; host or cells: Escherichia coli Top 10
# T2 sequence (Q8I3X4 1-245 V66F): T1 sequence (Q8I3X4 1-245) with V66F
# Experimental: as §1
# [3] = molecular target: T3, PfPNP Val73Ile (Plasmodium falciparum, UniProt Q8I3X4, V73I); assay: Substrate kinetics, coupled assay; type: biochemical; details: for Km / kcat: substrate = label
# T3 construct: made in house; host or cells: Escherichia coli Top 10
# T3 sequence (Q8I3X4 1-245 V73I): T1 sequence (Q8I3X4 1-245) with V73I
# Experimental: as §1
# [4] = molecular target: T4, PfPNP Arg45Ala (Plasmodium falciparum, UniProt Q8I3X4, R45A); assay: Substrate kinetics, coupled assay; type: biochemical; set-up: key: (-): Activity not detected under the experimental conditions; details: substrate = label
# T4 construct: made in house; host or cells: Escherichia coli Top 10
# T4 sequence (Q8I3X4 1-245 R45A): T1 sequence (Q8I3X4 1-245) with R45A
# Experimental: as §1
# [5] = molecular target: T5, PfPNP Asp206Ala (Plasmodium falciparum, UniProt Q8I3X4, D206A); assay: Substrate kinetics, coupled assay; type: biochemical; set-up: key: (-): Activity not detected under the experimental conditions; details: substrate = label
# T5 construct: made in house; host or cells: Escherichia coli Top 10
# T5 sequence (Q8I3X4 1-245 D206A): T1 sequence (Q8I3X4 1-245) with D206A
# Experimental: as §1
# [6] = molecular target: T6, PfPNP Met183Ala (Plasmodium falciparum, UniProt Q8I3X4, M183A); assay: Substrate kinetics, coupled assay; type: biochemical; set-up: key: (-): Activity not detected under the experimental conditions; details: substrate = label
# T6 construct: made in house; host or cells: Escherichia coli Top 10
# T6 sequence (Q8I3X4 1-245 M183A): T1 sequence (Q8I3X4 1-245) with M183A
# Experimental: as §1
# [7] = molecular target: T7, PfPNP Val73Phe (Plasmodium falciparum, UniProt Q8I3X4, V73F); assay: Substrate kinetics, coupled assay; type: biochemical; set-up: key: (-): Activity not detected under the experimental conditions; details: substrate = label
# T7 construct: made in house; host or cells: Escherichia coli Top 10
# T7 sequence (Q8I3X4 1-245 V73F): T1 sequence (Q8I3X4 1-245) with V73F
# Experimental: as §1
# [8] = test system: TgPNP; details: cited from earlier work; for Km / kcat: substrate = label
compound,measurement,setting,value
5′-methylthioinosine,kcat,[1]; substrate = label,0.83 ± 0.03 s⁻¹
same,Km,"[1]; substrate = label, 50 mM KH2PO4 pH 7.4, mean ± SD",8.8 ± 0.2 µM
same,Km,[2],(-)
same,kcat,[2],(-)
same,kcat/Km,[2],(-)
same,kcat/Km,[2]; listed as MTI,no detectable activity
same,Km,[3],11 ± 8 µM
same,kcat,[3],0.81 ± 0.03 s⁻¹
same,Km,[4],(-)
same,kcat,[4],(-)
same,kcat/Km,[4],(-)
same,Km,[5],(-)
same,kcat,[5],(-)
same,kcat/Km,[5],(-)
same,Km,[6],(-)
same,kcat,[6],(-)
same,kcat/Km,[6],(-)
same,kcat/Km,[6]; listed as MTI,no detectable activity
same,Km,[7],(-)
same,kcat,[7],(-)
same,kcat/Km,[7],(-)
same,kcat/Km,[7]; listed as MTI,no activity
same,efficiency for MTI when compared to inosine,[8],< 0.5%
same,Km,"[8]; ref Chaudhary, et al. [18]",31 ± 3 µM
same,kcat,"[8]; ref Chaudhary, et al. [18]",0.03 ± 0.00 s⁻¹
"OC[C@H]1O[C@@H](n2cnc3c(O)ncnc32)[C@H](O)[C@@H]1O [Inosine, inosine]",Ino/MTI kcat/Km Ratio,[1],1.6
same,Km greater than for wildtype PfPNP,[2],~100 fold
same,kcat,[2],5.7 ± 3.4 s⁻¹
same,Km,[2]; read-out: Km,1500 ± 410 µM
same,Ino/MTI kcat/Km Ratio,[3],2.0
same,Km,[3],13 ± 2 µM
same,kcat,[3],1.9 ± 0.7 s⁻¹
same,kcat,[4],0.05 ± 0.03 s⁻¹
same,Km,[4]; read-out: Km,470 ± 291 µM
same,kcat,[5],0.04 ± 0.01 s⁻¹
same,Km,[5]; read-out: Km,63 ± 6 µM
same,kcat,[6],0.4 ± 0.3 s⁻¹
same,Km,[6]; read-out: Km,260 ± 64 µM
same,Km,[7],(-)
same,kcat,[7],(-)
same,kcat/Km,[7],(-)
same,Ino/MTI kcat/Km Ratio,"[8]; ref Chaudhary, et al. [18]",230
same,Km,"[8]; ref Chaudhary, et al. [18]",13 ± 1 µM
same,kcat,"[8]; ref Chaudhary, et al. [18]",2.6 ± 0.0 s⁻¹
